Laboratory results reported in publication PMC3093256, “Synthesis of 1-Substituted Carbazolyl-1,2,3,4-tetrahydro- and Carbazolyl-3,4-dihydro-β-carboline Analogs as Potential Antitumor Agents” (Marine Drugs, 2011).
Converted amounts (≈) assume the structure as drawn.

Key:
[1] = test system: DLD (human colon adenocarcinoma); experiment: Cytotoxicity assay, DLD cells; type: cell-based; conditions: for IC50: Homo sapiens, 72 h, 3 days incubation, by interpolation
Procedure: (§1) The cytotoxic activities of compounds against KB (human mouth epidermoid carcinoma), DLD (human colon adenocarcinoma), NCI-H661 (human lung large cell carcinoma), Hepa (human hepatoma), and HepG2/A2 (human hepatoblastoma) cells were assayed by the […] assay as previously described. The cells for assay were cultured in RPMI-1640 medium supplemented with […] in an incubator at 37 °C. The cytotoxicity assay depends on the binding of methylene blue to fixed monolayers of cells at pH 8.5, washing the monolayer, and releasing the dye by lowering the pH value. Samples and control standard drugs were prepared at a concentration of 1, 10, 40, and 100 μg/mL. After seeding 2880 cells/well in a 96-well microplate for 3 h, 20 μL of sample or standard agent was placed in each well and incubated at 37 °C for 3 days. After removing the medium from the microplates, the cells were fixed with 10% formaldehyde in 0.9% saline for 30 min, then dyed with 1% (w/v) methylene blue in 0.01 M borate-buffer (100 μL/well) for 30 min. The 96-well plate was dipped into a 0.01 M borate-buffer solution four times in order to remove the dye. Then, 100 μL/well of EtOH-0.1 M HCl (1:1) was added as a dye eluting solvent, and the absorbance was measured on a microtiter plate reader (Dynatech, MR 7000) at a wavelength of 650 nm. […] Doxorubicin was used as a standard compound.

[2] = target: T1, human DNA topoisomerase I (Homo sapiens, UniProt P11387); experiment: Relaxation assay of topoisomerase I (supercoiled pBR322); type: biochemical; conditions: five concentrations 5, 10, 25, 50 and 100 μg/mL; read-out: Inhibition of DNA topoisomerase I IC50 (converted)
T1 construct: purchased TopoGen
T1 sequence (P11387 1-765): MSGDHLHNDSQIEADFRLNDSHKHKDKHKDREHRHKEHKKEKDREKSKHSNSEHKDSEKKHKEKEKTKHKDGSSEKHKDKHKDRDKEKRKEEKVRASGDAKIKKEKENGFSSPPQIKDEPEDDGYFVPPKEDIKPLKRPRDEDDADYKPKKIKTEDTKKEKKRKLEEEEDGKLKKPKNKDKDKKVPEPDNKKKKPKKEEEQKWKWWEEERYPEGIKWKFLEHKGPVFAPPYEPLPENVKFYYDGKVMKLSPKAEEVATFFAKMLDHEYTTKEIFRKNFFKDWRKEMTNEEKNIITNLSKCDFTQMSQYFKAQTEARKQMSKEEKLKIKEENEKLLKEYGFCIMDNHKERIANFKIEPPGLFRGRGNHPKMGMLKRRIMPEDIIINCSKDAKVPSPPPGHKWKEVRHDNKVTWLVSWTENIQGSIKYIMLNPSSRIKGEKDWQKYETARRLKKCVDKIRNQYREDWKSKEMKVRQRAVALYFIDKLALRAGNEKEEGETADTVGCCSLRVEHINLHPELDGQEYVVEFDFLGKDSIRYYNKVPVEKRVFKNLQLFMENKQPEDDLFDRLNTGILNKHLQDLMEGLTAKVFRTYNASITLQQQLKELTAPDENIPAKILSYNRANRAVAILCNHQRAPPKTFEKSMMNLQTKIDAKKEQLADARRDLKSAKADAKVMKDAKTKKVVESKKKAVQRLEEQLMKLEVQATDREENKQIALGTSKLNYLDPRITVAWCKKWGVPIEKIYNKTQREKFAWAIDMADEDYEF
Procedure: (§2) Topoisomerases I and II (topo I and II) assays were measured by assessing relaxation of supercoiled pBR322 plasmid DNA according to [24]. […] In summary, topo I (TopoGen) was mixed with the test sample and 10° volume of assay buffer (100 mM Tris-HCl, 10 mM EDTA, 1.5 M NACl, 1.0% BSA, […], and 50% glycerol), and then supercoiled DNA (pBR322) was added. In topo II assay, the mixture contained test sample and buffer including 50 mM Tris-HCl, 120 mM KCl, 10 mM MgCl2, 0.5 mM ATP, 0.5 mM dithiothreitol, 2 μg BSA, pBR322 plasmid DNA (0.25 μg), and 3U of topo II (TopoGen) in final volume of 20 μL. After incubation of topo I or topo II mixture for 30 min at 37 °C, 2 λ 10% SDS and 2.5 λ proteinase K were added for 1 h. The reaction mixtures were electrophoresed on a 2% agarose gel (50 V, 20 min; 100 V, 30 min; 110 V, 30 min) and stained with ethidium bromide. Finally, by a densitometer of ImageMaster® (Fujifilm thermal imaging system, FTI-500), the gels were directly scanned and the area representing supercoiled DNA was calculated.

[3] = test system: KB (human mouth epidermoid carcinoma); experiment: Cytotoxicity assay, KB cells; type: cell-based; conditions: 72 h, 3 days incubation, by interpolation
Procedure: as §1

[4] = target: T2, human DNA topoisomerase II (Homo sapiens, UniProt P11388); experiment: Relaxation assay of topoisomerase II (supercoiled pBR322); type: biochemical; conditions: for IC50: five concentrations 5, 10, 25, 50 and 100 μg/mL, read-out: Inhibition of DNA topoisomerase II IC50 (converted); for inhibition of DNA topoisomerase II (in words): compared with etoposide; for fold more potent against topoisomerase II compared to etoposide: relative to etoposide
T2 construct: purchased TopoGen
Procedure: as §2

[5] = test system: NCI-H661 (human lung large cell carcinoma); experiment: Cytotoxicity assay, NCI-H661 cells; type: cell-based; conditions: 72 h, 3 days incubation, by interpolation
Procedure: as §1

[6] = test system: HepG2/A2 (human hepatoma); experiment: Cytotoxicity assay, HepG2/A2 cells; type: cell-based; conditions: for IC50: Homo sapiens, 72 h, HepG2/A2 cells, 3 days incubation, by interpolation
Procedure: as §1

Hepa (human hepatoma) = experiment: Cytotoxicity assay, Hepa cells; type: cell-based; conditions: 72 h, 3 days incubation, by interpolation
Procedure: as §1

T2 sequence (P11388 whole entry): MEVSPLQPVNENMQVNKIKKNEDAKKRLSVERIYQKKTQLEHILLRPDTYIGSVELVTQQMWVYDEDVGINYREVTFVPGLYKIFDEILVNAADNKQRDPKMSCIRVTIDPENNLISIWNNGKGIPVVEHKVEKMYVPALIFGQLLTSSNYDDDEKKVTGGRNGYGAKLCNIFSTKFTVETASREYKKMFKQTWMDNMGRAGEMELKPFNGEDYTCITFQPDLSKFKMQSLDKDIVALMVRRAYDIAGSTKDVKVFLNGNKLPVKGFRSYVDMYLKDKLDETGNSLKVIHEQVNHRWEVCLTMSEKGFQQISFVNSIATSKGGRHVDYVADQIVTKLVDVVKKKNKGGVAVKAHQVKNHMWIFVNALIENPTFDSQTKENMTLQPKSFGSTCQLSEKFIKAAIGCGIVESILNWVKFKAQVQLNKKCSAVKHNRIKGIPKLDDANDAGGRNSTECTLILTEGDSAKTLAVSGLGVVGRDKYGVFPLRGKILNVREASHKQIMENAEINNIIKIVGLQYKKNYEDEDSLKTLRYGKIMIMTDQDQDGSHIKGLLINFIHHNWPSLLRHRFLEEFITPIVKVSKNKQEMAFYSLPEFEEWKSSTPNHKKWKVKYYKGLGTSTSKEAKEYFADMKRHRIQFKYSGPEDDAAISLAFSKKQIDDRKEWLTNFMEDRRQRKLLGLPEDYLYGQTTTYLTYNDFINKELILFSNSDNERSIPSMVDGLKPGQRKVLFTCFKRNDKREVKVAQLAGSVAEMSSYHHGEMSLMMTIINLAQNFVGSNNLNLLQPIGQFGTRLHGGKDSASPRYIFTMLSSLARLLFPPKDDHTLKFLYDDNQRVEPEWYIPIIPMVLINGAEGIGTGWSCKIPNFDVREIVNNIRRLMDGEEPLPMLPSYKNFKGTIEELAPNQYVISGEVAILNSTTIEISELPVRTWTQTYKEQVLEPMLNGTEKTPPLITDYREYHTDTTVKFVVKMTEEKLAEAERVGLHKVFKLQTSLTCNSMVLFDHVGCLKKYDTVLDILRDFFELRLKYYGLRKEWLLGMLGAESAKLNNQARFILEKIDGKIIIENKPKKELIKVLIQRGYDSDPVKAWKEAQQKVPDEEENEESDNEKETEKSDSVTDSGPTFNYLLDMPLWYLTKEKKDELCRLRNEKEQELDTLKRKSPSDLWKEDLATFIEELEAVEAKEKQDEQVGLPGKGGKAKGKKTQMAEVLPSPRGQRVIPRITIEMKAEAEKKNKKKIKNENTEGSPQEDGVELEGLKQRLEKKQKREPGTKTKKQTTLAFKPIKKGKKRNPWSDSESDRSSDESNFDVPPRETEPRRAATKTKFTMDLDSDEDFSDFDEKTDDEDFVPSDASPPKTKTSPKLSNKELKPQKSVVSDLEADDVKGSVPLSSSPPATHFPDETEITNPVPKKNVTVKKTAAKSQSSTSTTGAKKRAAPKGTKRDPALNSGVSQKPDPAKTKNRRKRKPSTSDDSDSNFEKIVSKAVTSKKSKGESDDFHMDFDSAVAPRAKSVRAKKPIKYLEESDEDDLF

IC50 [2]	IC50 [4]	melting point	inhibition of DNA topoisomerase II (in words) [4]	fold more potent against topoisomerase II compared to etoposide [4]	Structure (SMILES)	IC50 [1]	IC50 [3]	IC50 [5]	IC50 [6]	IC50 (Hepa (human hepatoma))	cytotoxicity against HepG2/A2 (in words) ([6]; HepG2/A2 tumor cells)	activity in DLD assay (in words) [1]
> 254 µM	25.4 µM	127 to 130 °C			CCC(C)n1c2ccccc2c2cc(C3NCCc4c3[nH]c3ccccc43)ccc21 (stereo not drawn) [Compound 5, 1-(9′-[1″-Methyl]propyl-3′-carbazolyl)-1,2,3,4-tetrahydro-β-carboline]		3 µg/mL (≈ 7.62 µM)			2.25 µg/mL (≈ 5.72 µM)		
> 255 µM	66.4 µM	151 to 154 °C			CCC(C)n1c2ccccc2c2cc(C3=NCCc4c3[nH]c3ccccc43)ccc21 (stereo not drawn) [Compound 6, 1-(9′-[1″-Methyl]propyl-3′-carbazolyl)-3,4-dihydro-β-carboline]		0.48 µg/mL (≈ 1.23 µM)			2.67 µg/mL (≈ 6.82 µM)		
218 µM	6.62 µM	129 to 130 °C	most potent		CCCCCn1c2ccccc2c2cc(C3NCCc4c3[nH]c3ccccc43)ccc21 (stereo not drawn) [Compound 7, 1-(9′-Pentyl-3′-carbazolyl)-1,2,3,4-tetrahydro-β-carboline]	3.75 µg/mL (≈ 9.2 µM)	3.45 µg/mL (≈ 8.46 µM)	0.22 µg/mL (≈ 0.54 µM)	20.5 µg/mL (≈ 50.3 µM)			
143 µM	54.2 µM	97 to 98 °C			CCCCCn1c2ccccc2c2cc(C3=NCCc4c3[nH]c3ccccc43)ccc21 [Compound 8, 1-(9′-Pentyl-3′-carbazolyl)-3,4-dihydro-β-carboline]	1.29 µg/mL (≈ 3.18 µM)	> 20 µg/mL	3.39 µg/mL (≈ 8.36 µM)	5.4 µg/mL (≈ 13.3 µM)		active	
165 µM	6.66 µM	135 to 137 °C	most potent	10- to 15 fold	CC(C)CCn1c2ccccc2c2cc(C3=NCCc4c3[nH]c3ccccc43)ccc21 [Compound 10, 1-(9′-[3″-Methylbutyl]-3′-carbazolyl)-3,4-dihydro-β-carboline]		3.13 µg/mL (≈ 7.72 µM)			4.4 µg/mL (≈ 10.8 µM)		
> 222 µM	66.7 µM	87 to 89 °C			CCCCCCCCn1c2ccccc2c2cc(C3NCCc4c3[nH]c3ccccc43)ccc21 (stereo not drawn) [Compound 11, 1-(9′-Octyl-3′-carbazolyl)-1,2,3,4-tetrahydro-β-carboline]	1.57 µg/mL (≈ 3.49 µM)	> 20 µg/mL	> 20 µg/mL	20.7 µg/mL (≈ 46 µM)			active
> 223 µM	64.8 µM	91 to 92 °C			CCCCCCCCn1c2ccccc2c2cc(C3=NCCc4c3[nH]c3ccccc43)ccc21 [Compound 12, 1-(9′-Octyl-3′-carbazolyl)-3,4-dihydro-β-carboline]	2.55 µg/mL (≈ 5.7 µM)	9.13 µg/mL (≈ 20.4 µM)	5.28 µg/mL (≈ 11.8 µM)	30.1 µg/mL (≈ 67.2 µM)			
> 210 µM	39.9 µM	78 to 80 °C			CCCCCCCCCCn1c2ccccc2c2cc(C3=NCCc4c3[nH]c3ccccc43)ccc21 [Compound 14, 1-(9′-Decyl-3′-carbazolyl)-3,4-dihydro-β-carboline]	> 20 µg/mL	> 20 µg/mL	> 20 µg/mL	> 60 µg/mL	> 20 µg/mL		
> 178 µM	> 178 µM	111 to 113 °C			CCCCCCCCCCCCCCCCn1c2ccccc2c2cc(C3NCCc4c3[nH]c3ccccc43)ccc21 (stereo not drawn) [Compound 15, 1-(9′-Hexadecyl-3′-carbazolyl)-1,2,3,4-tetrahydro-β-carboline]	> 20 µg/mL	> 20 µg/mL	> 20 µg/mL	> 60 µg/mL	> 20 µg/mL		

The remaining lines, values behind:

Structure (SMILES)	IC50 [2]	IC50 [4]	melting point	inhibition of DNA topoisomerase II (in words) [4]	fold more potent against topoisomerase II compared to etoposide [4]	IC50 [1]	IC50 [3]	IC50 [5]	IC50 [6]	IC50 (Hepa (human hepatoma))	cytotoxicity against HepG2/A2 (in words) ([6]; HepG2/A2 tumor cells)	activity in DLD assay (in words) [1]
CCn1c2ccccc2c2cc(C3NCCc4c3[nH]c3ccccc43)ccc21 (stereo not drawn) [Compound 1, 1-(9′-Ethyl-3′-carbazolyl)-1,2,3,4-tetrahydro-β-carboline]	> 274 µM	26 µM	240 to 242 °C			1.69 µg/mL (≈ 4.62 µM)	3.47 µg/mL (≈ 9.49 µM)	1.82 µg/mL (≈ 4.98 µM)				
CCn1c2ccccc2c2cc(C3=NCCc4c3[nH]c3ccccc43)ccc21 [Compound 2, 1-(9′-Ethyl-3′-carbazolyl)-3,4-dihydro-β-carboline]	> 275 µM	23.4 µM	175 to 177 °C			1.09 µg/mL (≈ 3 µM)	0.71 µg/mL (≈ 1.95 µM)	0.84 µg/mL (≈ 2.31 µM)	0.6 µg/mL (≈ 1.65 µM)			
CCCn1c2ccccc2c2cc(C3NCCc4c3[nH]c3ccccc43)ccc21 (stereo not drawn) [Compound 3, 1-(9′-Propyl-3′-carbazolyl)-1,2,3,4-tetrahydro-β-carboline]	124 µM	4.22 µM	110 to 112 °C	most potent	10- to 15 fold	1.58 µg/mL (≈ 4.16 µM)	1.84 µg/mL (≈ 4.85 µM)	2.14 µg/mL (≈ 5.64 µM)	6.1 µg/mL (≈ 16.1 µM)			
CCCn1c2ccccc2c2cc(C3=NCCc4c3[nH]c3ccccc43)ccc21 [Compound 4, 1-(9′-Propyl-3′-carbazolyl)-3,4-dihydro-β-carboline]	> 265 µM	5.56 µM	126 to 128 °C	most potent	10- to 15 fold	2.16 µg/mL (≈ 5.72 µM)	2.72 µg/mL (≈ 7.21 µM)	5.02 µg/mL (≈ 13.3 µM)	5.1 µg/mL (≈ 13.5 µM)			
CC(C)CCn1c2ccccc2c2cc(C3NCCc4c3[nH]c3ccccc43)ccc21 (stereo not drawn) [Compound 9, 1-(9′-[3″-Methylbutyl]-3′-carbazolyl)-1,2,3,4-tetrahydro-β-carboline]	236 µM	6.87 µM	99 to 101 °C	most potent	10- to 15 fold		2.96 µg/mL (≈ 7.26 µM)			1.12 µg/mL (≈ 2.75 µM)		
CCCCCCCCCCn1c2ccccc2c2cc(C3NCCc4c3[nH]c3ccccc43)ccc21 (stereo not drawn) [Compound 13, 1-(9′-Decyl-3′-carbazolyl)-1,2,3,4-tetrahydro-β-carboline]	> 209 µM	58.6 µM	102 to 104 °C			10.4 µg/mL (≈ 21.8 µM)	6.36 µg/mL (≈ 13.3 µM)	13.9 µg/mL (≈ 29.1 µM)	> 60 µg/mL			
CCCCCCCCCCCCCCCCCCCCn1c2ccccc2c2cc(C3NCCc4c3[nH]c3ccccc43)ccc21 (stereo not drawn) [Compound 17, 1-(9′-Eicosyl-3′-carbazolyl)-1,2,3,4-tetrahydro-β-carboline]	> 162 µM	> 162 µM				> 20 µg/mL	> 20 µg/mL	> 20 µg/mL	> 60 µg/mL	> 20 µg/mL		
